Results from patent publication US9510594B2, “Use of SDHI fungicides on conventionally bred ASR-tolerant, stem canker resistant and/or frog-eye leaf spot resistant soybean varieties” (BAYER INTELLECTUAL PROPERTY GMBH, priority 2011, dated 2016).

Test system: Phakopsora pachyrhizi
Experiment: Soybean rust greenhouse test: preventive spray of young soybean plants, ABBOTT % efficacy, Colby comparison
Format: in vivo
Conditions: for Efficacy: fungicide alone, susceptible soybean variety (Miyagishirome), evaluated 11 days after inoculation
Method: One susceptible (Miyagishirome) and soybean varieties tolerant to soybean rust (Phakospora pachyrhizi) (TMG 801 and TMG 803) were cultivated in greenhouse up to 1.5-leaf stage. A suitable preparation of SDHI fungicide was produced by mixing 1 part per weight of the SDHI ingredient with 28.5 parts by weight of acetone as solvent and 1.5 parts by weight of polyoxyethylene alkyl phenyl ether as emulsifier. The concentrate was diluted with water to the desired concentrations.
Young plants of the susceptible and tolerant soybean varieties were sprayed with the preparation of the SDHI fungicide at the stated rate of application to evaluate the activity in controlling Phakopsora pachyrhizi.
One day after spraying, soybean plants were inoculated with an aqueous spore suspension of the causal agent of soybean rust (Phakopsora pachyrhizi). Plants were then placed in a greenhouse at approximately 20 ° C. and a relative atmospheric humidity of approximately 80%. The following trial schedule was applied:
Plants were evaluated 11 days after inoculation. The percentage of infected leaf area was determined visually. The results were calculated according to ABBOTT (% efficacy). 0% means an efficacy which corresponds to that of the control, while an efficacy of 100% means that no disease was observed.
The expected efficiencies for the SDHI fungicide and ASR-tolerant variety combinations were determined according to Colby's formula and compared to the observed efficiencies (Colby, S. R. (1967) Calculating synergistic and antagonistic responses of herbicide combinations, Weeds, 15: 20-22): E=x+y−xy/100
Wherein E is the expected efficacy as a percent of the check when using the combination of a fungicide and ASR-tolerant variety; x is the efficacy of the percent check when using the fungicide; y is the efficacy of the percent check when using the ASR-tolerant variety.
By Comparison of the expected efficacy and the observed efficacy, the synergistic effect can be discerned. If the observed percent efficacy is higher than the calculated expected percent efficacy there is a synergistic effect.

[1] = fungicide + tolerant soybean variety TMG 803, 0.2 ppm a.i.
[2] = fungicide + tolerant soybean variety TMG 803, 1 ppm a.i.
[3] = fungicide + tolerant soybean variety TMG 803, 5 ppm a.i.
[4] = fungicide + tolerant soybean variety TMG 803, 10 ppm a.i.
[5] = fungicide + tolerant soybean variety TMG 803, 25 ppm a.i.
[6] = fungicide + tolerant soybean variety TMG 803, 50 ppm a.i.
[7] = fungicide + tolerant soybean variety TMG 803, 100 ppm a.i.
[8] = fungicide + tolerant soybean variety TMG 801, 0.2 ppm a.i.
[9] = fungicide + tolerant soybean variety TMG 801, 1 ppm a.i.
[10] = fungicide + tolerant soybean variety TMG 801, 5 ppm a.i.
[11] = fungicide + tolerant soybean variety TMG 801, 10 ppm a.i.
[12] = fungicide + tolerant soybean variety TMG 801, 25 ppm a.i.
[13] = fungicide + tolerant soybean variety TMG 801, 50 ppm a.i.

For Cn1cc(C(=O)Nc2ccc(F)cc2-c2ccc(Cl)c(Cl)c2)c(C(F)F)n1 [Bixafen, N-(3′,4′-dichloro-5-fluoro-1,1′-biphenyl-2-yl)-3-(difluoromethyl)-1-methyl-1H-pyrazole-4-carboxamide], the synergistic effect (applied to TMG 803, concentrations from 100 ppm a.i. to 25 ppm a.i.) was “highest synergistic effect”, the Actual efficacy [1] was 60% and the “Expected value, calculated using Colby's formula” value (“Expected value, calculated” below) [1] was 55%. For the same molecule, the Actual efficacy [2] was 70%, the “Expected value, calculated” value [2] was 58% and the Actual efficacy [3] was 75%. For the same molecule, the “Expected value, calculated” value [3] was 64%, the Actual efficacy [4] was 80% and the “Expected value, calculated” value [4] was 73%. For the same molecule, the Actual efficacy [5] was 96%, the “Expected value, calculated” value [5] was 80% and the Actual efficacy [6] was 98%. For the same molecule, the “Expected value, calculated” value [6] was 82%, the Actual efficacy [7] was 99% and the “Expected value, calculated” value [7] was 78%. For the same molecule, the Efficacy (0.2 ppm a.i.) was 0%, the Efficacy (1 ppm a.i.) was 7% and the Efficacy (5 ppm a.i.) was 20%. For the same molecule, the Efficacy (10 ppm a.i.) was 40%, the Efficacy (25 ppm a.i.) was 55% and the Efficacy (50 ppm a.i.) was 60%. The Efficacy (100 ppm a.i.) was 50%.
In the case of Cn1cc(C(=O)Nc2ccccc2-c2cc(F)c(F)c(F)c2)c(C(F)F)n1 [Fluxapyroxad, 3-(difluoromethyl)-1-methyl-N-(3′,4′,5′-trifluorobiphenyl-2-yl)-1H-pyrazole-4-carboxamide], the synergistic effect (1 ppm a.i. applied to TMG 803, compared over all fungicides and rates) is reported as “most pronounced synergistic effect”, the Actual efficacy [1] is reported as 30% and the “Expected value, calculated” value [1] is reported as 20%. For the same molecule, the Actual efficacy [2] was 65%, the “Expected value, calculated” value [2] was 26% and the Actual efficacy [3] was 70%. The “Expected value, calculated” value [3] was 68%, the Actual efficacy [4] was 80% and the “Expected value, calculated” value [4] was 76%. The Actual efficacy [5] was 97%, the “Expected value, calculated” value [5] was 98% and the Efficacy (0.2 ppm a.i.) was 0%. For the same molecule, the Efficacy (1 ppm a.i.) was 7%, the Efficacy (5 ppm a.i.) was 60% and the Efficacy (10 ppm a.i.) was 70%. It also gave an Efficacy (25 ppm a.i.) of 98%.
In the case of CC(C)C1C2CCC1c1c(NC(=O)c3cn(C)nc3C(F)F)cccc12 (stereo not drawn) [Isopyrazam], the Actual efficacy [1] is reported as 55%, the “Expected value, calculated” value [1] is reported as 30% and the Actual efficacy [2] is reported as 80%. The “Expected value, calculated” value [2] was 65%, the Efficacy (0.2 ppm a.i.) was 0% and the Efficacy (1 ppm a.i.) was 50%.
For Cc1nn(C)c(F)c1C(=O)Nc1ccccc1C(C)CC(C)C (stereo not drawn) [Penflufen, N-[2-(1,3-dimethylbutyl)phenyl]-5-fluor-1,3-dimethyl-1H-pyrazole-4-carboxamide], the “deviation of the actual efficacy from the expected value” (10 ppm a.i., TMG 801 or TMG 803) was “highest deviations of the actual efficacy from the expected value”, the Actual efficacy [8] was 65% and the “Expected value, calculated” value [8] was 50%. For the same molecule, the Actual efficacy [9] was 70%, the “Expected value, calculated” value [9] was 50% and the Actual efficacy [10] was 70%. The “Expected value, calculated” value [10] was 60%, the Actual efficacy [11] was 92% and the “Expected value, calculated” value [11] was 60%. For the same molecule, the Actual efficacy [12] was 98%, the “Expected value, calculated” value [12] was 78% and the Actual efficacy [13] was 100%. The “Expected value, calculated” value [13] was 80%, the Actual efficacy [1] was 70% and the “Expected value, calculated” value [1] was 50%. The Actual efficacy [2] was 65%, the “Expected value, calculated” value [2] was 50% and the Actual efficacy [3] was 95%. For the same molecule, the “Expected value, calculated” value [3] was 60%, the Actual efficacy [4] was 98% and the “Expected value, calculated” value [4] was 60%. The Actual efficacy [5] was 97%, the “Expected value, calculated” value [5] was 78% and the Actual efficacy [6] was 100%. For the same molecule, the “Expected value, calculated” value [6] was 80%, the Efficacy (0.2 ppm a.i.) was 0% and the Efficacy (1 ppm a.i.) was 0%. The Efficacy (5 ppm a.i.) was 20%, the Efficacy (10 ppm a.i.) was 20% and the Efficacy (25 ppm a.i.) was 55%. It also gave an Efficacy (50 ppm a.i.) of 60%.
With Cn1cc(C(=O)Nc2ccccc2C2CC2C2CC2)c(C(F)F)n1 (stereo not drawn) [Sedaxane] the synergistic effect (applied to TMG 803, 0.2 ppm a.i. to 1 ppm a.i. versus 5 ppm a.i. to 25 ppm a.i.) was “higher synergism”, the Actual efficacy [9] was 82% and the “Expected value, calculated” value [9] was 65%. For the same molecule, the Actual efficacy [10] was 90%, the “Expected value, calculated” value [10] was 79% and the Actual efficacy [11] was 98%. The “Expected value, calculated” value [11] was 90%, the Actual efficacy [12] was 99% and the “Expected value, calculated” value [12] was 99%. The Actual efficacy [1] was 50%, the “Expected value, calculated” value [1] was 30% and the Actual efficacy [2] was 60%. For the same molecule, the “Expected value, calculated” value [2] was 30%, the Actual efficacy [3] was 75% and the “Expected value, calculated” value [3] was 58%. For the same molecule, the Actual efficacy [4] was 95%, the “Expected value, calculated” value [4] was 79% and the Actual efficacy [5] was 100%. The “Expected value, calculated” value [5] was 99%, the Efficacy (0.2 ppm a.i.) was 0% and the Efficacy (1 ppm a.i.) was 0%. The Efficacy (5 ppm a.i.) was 40%, the Efficacy (10 ppm a.i.) was 70% and the Efficacy (25 ppm a.i.) was 98%.
